Where two headings read alike, the source gives them in different places.
Molecular target: T1, human recombinant 15-PGDH (Homo sapiens, UniProt P15428)
T1 sequence (P15428 1-266): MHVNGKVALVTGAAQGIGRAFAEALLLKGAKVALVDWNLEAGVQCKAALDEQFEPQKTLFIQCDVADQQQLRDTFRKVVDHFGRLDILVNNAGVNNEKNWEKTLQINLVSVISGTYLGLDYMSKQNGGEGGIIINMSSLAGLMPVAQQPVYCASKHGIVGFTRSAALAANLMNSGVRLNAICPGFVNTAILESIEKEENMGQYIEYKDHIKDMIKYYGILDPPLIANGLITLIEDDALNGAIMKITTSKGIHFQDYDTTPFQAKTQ
Experiment: Inhibition of recombinant 15-PGDH enzymatic activity (NADH quantification after addition of PGE2 and NAD+)
Format: biochemical
Protocol: The compound dose-response of its inhibition of 15-PGDH activity was determined in human recombinant 15-PGDH enzymatical assays. These assays measured 15-PGDH enzymatic activity by quantifying the amount of NADH produced during a 60-minute reaction initiated by the addition of PGE2 and NAD+. Under the conditions of these experiments, the increase of NADH signal upon oxidation of PGE2 and reduction of NAD+ was linearly proportional to 15-PGDH enzymatic activity. The recombinant human, mouse, rat and dog 15-PGDH enzymatic assays were performed in a 25 μL volume of reaction buffer containing 50 mM Tris, pH 7.5, 0.01% Tween-20 and 100 μM DTT in a 384-well microtiter plate. In concentration-response experiments with tested compounds, 22 concentrations from 2-fold serial dilutions in DMSO were pre-incubated with 15-PGDH for 15 minutes at room temperature. Then, PGE2 and ß-NAD+ were added to initiate the 15-PGDH reaction. After 60 minutes at room temperature, the reaction was quenched and NADH signal was measured using a microtiter plate reader.
The following data (Table 11-1) provides the IC50 of each compound for inhibiting enzymatic activity of recombinant 15-PGDH in the assay described above.

[1] = recombinant 15-PGDH, 15 min pre-incubation, 60-minute reaction, room temperature, pH 7.5, PGE2 and NAD+, read-out: PGDH-Lumi IC50

IC50 [1] [nM] | IC50 [nM] | SMILES
4500 |  | Cc1c(C(=O)N2CCOCC2)sc2cc(-c3cncnc3)ccc12 [Compound A8, (3-methyl-6-(5-pyrimidinyl)-1-benzothiophen-2-yl)(4-morpholinyl)methanone]
1.63 |  | Cn1cc2cc(-c3ccc4sc(C(=O)N5CCCC(F)(F)C5)c(N)c4n3)cnc2n1 [Compound C47, (3-amino-5-(2-methyl-2H-pyrazolo[3,4-b]pyridin-5-yl)thieno[3,2-b]pyridin-2-yl)(3,3-difluoro-1-piperidinyl)methanone]
212 |  | Cn1cc2cc(-c3ccc4cc(C(=O)N5CCOCC5C#N)sc4n3)cnc2n1 (centres unmarked) [Compound B30, 4-((6-(2-methyl-2H-pyrazolo[3,4-b]pyridin-5-yl)thieno[2,3-b]pyridin-2-yl)carbonyl)-3-morpholinecarbonitrile]
0.317 |  | Cn1cc2cc(-c3cc(C4CC4)c4cc(C(=O)N5CCCC(F)(F)C5)sc4n3)cnc2n1 [Compound B11, (4-cyclopropyl-6-(2-methyl-2H-pyrazolo[3,4-b]pyridin-5-yl)thieno[2,3-b]pyridin-2-yl)(3,3-difluoro-1-piperidinyl)methanone]
217 |  | Cc1c(C(=O)N2CCOC[C@@H]2C)sc2cc(-c3cnc4nn(C)cc4c3)ccc12 [Compound A1S, (3-methyl-6-(2-methyl-2H-pyrazolo[3,4-b]pyridin-5-yl)-1-benzothiophen-2-yl)((3S)-3-methyl-4-morpholinyl)methanone]
128 |  | Cn1cnc(-c2ccc3cc(C(=O)N4CCOCC4)sc3n2)cc1=O [Compound B39, 3-methyl-6-(2-(4-morpholinylcarbonyl)thieno[2,3-b]pyridin-6-yl)-4(3H)-pyrimidinone]
46.4 |  | Cn1cc2cc(-c3ccc4cc(C(=O)N5CCOCC56CCC6)sc4n3)cnc2n1 [Compound B59, (6-(2-methyl-2H-pyrazolo[3,4-b]pyridin-5-yl)thieno[2,3-b]pyridin-2-yl)(8-oxa-5-azaspiro[3.5]nonan-5-yl)methanone]
6.33 |  | Cn1nc2cc(-c3ccc4cc(C(=O)N5CCOCC5)sc4n3)cnc2n1 [Compound B42, (6-(2-methyl-2H-[1,2,3]triazolo[4,5-b]pyridin-6-yl)thieno[2,3-b]pyridin-2-yl)(4-morpholinyl)methanone]
1.67 |  | Cn1cc2cc(-c3nc(C4CC4)c4sc(C(=O)N5CCOCC5)cc4n3)cnc2n1 [Compound C49, (4-cyclopropyl-2-(2-methyl-2H-pyrazolo[3,4-b]pyridin-5-yl)thieno[3,2-d]pyrimidin-6-yl)(4-morpholinyl)methanone]
11.7 |  | Cc1c(C(=O)N2CCC(F)(F)CC2)sc2cc(-c3cnc4nn(C)cc4c3)ccc12 [Compound A3, (4,4-difluoro-1-piperidinyl)(3-methyl-6-(2-methyl-2H-pyrazolo[3,4-b]pyridin-5-yl)-1-benzothiophen-2-yl)methanone]
46.1 |  | Cn1cc2cc(-c3ccc4cc(C(=O)N5CCOCC56CC6)sc4n3)cnc2n1 [Compound B45, (6-(2-methyl-2H-pyrazolo[3,4-b]pyridin-5-yl)thieno[2,3-b]pyridin-2-yl)(7-oxa-4-azaspiro[2.5]octan-4-yl)methanone]
0.853 |  | Cn1cc2cc(-c3cc(C4CC4)c4cc(C(=O)N5CCC(F)(F)CC5)sc4n3)cnc2n1 [Compound B19, (4-cyclopropyl-6-(2-methyl-2H-pyrazolo[3,4-b]pyridin-5-yl)thieno[2,3-b]pyridin-2-yl)(4,4-difluoro-1-piperidinyl)methanone]
11.9 |  | Cn1ccc2cc(-c3cnc4sc(C(=O)N5CCCCC5)cc4c3)ccc2c1=O [Compound B28, 2-methyl-6-(2-(1-piperidinylcarbonyl)thieno[2,3-b]pyridin-5-yl)-1(2H)-isoquinolinone]
1.75 |  | Cn1cc2cc(-c3ccc4cc(C(=O)N5C[C@H]6CC[C@@H]5CO6)sc4n3)cnc2n1 (stereo in doubt) [Compound B52, (6-(2-methyl-2H-pyrazolo[3,4-b]pyridin-5-yl)thieno[2,3-b]pyridin-2-yl)(2-oxa-5-azabicyclo[2.2.2]octan-5-yl)methanone]
623 |  | C[C@H]1COCCN1C(=O)c1cc2ccc(-c3ccc(=O)n(C)c3)nc2s1 [Compound B32S, 1-methyl-5-(2-(((3S)-3-methyl-4-morpholinyl)carbonyl)thieno[2,3-b]pyridin-6-yl)-2(1H)-pyridinone]
1.11 |  | Cn1cc2cc(-c3cc(C4CC4)c4cc(C(=O)N5CCC(C(F)(F)F)CC5)sc4n3)cnc2n1 [Compound B20, (4-cyclopropyl-6-(2-methyl-2H-pyrazolo[3,4-b]pyridin-5-yl)thieno[2,3-b]pyridin-2-yl)(4-(trifluoromethyl)-1-piperidinyl)methanone]

IC50 [1] [nM] | IC50 [nM] | SMILES
0.428 |  | Cn1cc2cc(-c3cc(C4CC4)c4cc(C(=O)N5CCCOCC5)sc4n3)cnc2n1 [Compound B24, (4-cyclopropyl-6-(2-methyl-2H-pyrazolo[3,4-b]pyridin-5-yl)thieno[2,3-b]pyridin-2-yl)(1,4-oxazepan-4-yl)methanone]
0.352 |  | Cn1cc2cc(-c3ccc4cc(C(=O)N5CCC(F)(F)CC5)sc4n3)cnc2n1 [Compound B25, (4,4-difluoro-1-piperidinyl)(6-(2-methyl-2H-pyrazolo[3,4-b]pyridin-5-yl)thieno[2,3-b]pyridin-2-yl)methanone]
0.679 |  | Cn1cc2cc(-c3ccc4sc(C(=O)N5CCCCC5)c(N)c4n3)cnc2n1 [Compound C45, (3-amino-5-(2-methyl-2H-pyrazolo[3,4-b]pyridin-5-yl)thieno[3,2-b]pyridin-2-yl)(1-piperidinyl)methanone]
54.2 |  | C[C@H]1COCCN1C(=O)c1cc2ccc(-c3cnc4c(c3)nnn4C)nc2s1 [Compound B44S, ((3S)-3-methyl-4-morpholinyl)(6-(3-methyl-3H-[1,2,3]triazolo[4,5-b]pyridin-6-yl)thieno[2,3-b]pyridin-2-yl)methanone]
83.6 |  | Cn1cc2cc(-c3ccc4cc(C(=O)N5CCOCC5(C)C)sc4n3)cnc2n1 [Compound B29, (3,3-dimethyl-4-morpholinyl)(6-(2-methyl-2H-pyrazolo[3,4-b]pyridin-5-yl)thieno[2,3-b]pyridin-2-yl)methanone]
 | 0.387 | Cn1cc2cc(-c3cc(C4CCC4)c4c(N)c(C(=O)N5CCC(F)(F)CC5)sc4n3)cnc2n1 [Compound B4, (3-amino-4-cyclobutyl-6-(2-methyl-2H-pyrazolo[3,4-b]pyridin-5-yl)thieno[2,3-b]pyridin-2-yl)(4,4-difluoro-1-piperidinyl)methanone]
49.5 |  | CO[C@@H]1CCCN(C(=O)c2sc3cc(-c4cnc5nn(C)cc5c4)ccc3c2C)C1 [Compound A7R, ((3R)-3-methoxy-1-piperidinyl)(3-methyl-6-(2-methyl-2H-pyrazolo[3,4-b]pyridin-5-yl)-1-benzothiophen-2-yl)methanone]
225 |  | CO[C@@H]1CCN(C(=O)c2sc3cc(-c4cnc5nn(C)cc5c4)ccc3c2C)C1 [Compound A4R, ((3R)-3-methoxy-1-pyrrolidinyl)(3-methyl-6-(2-methyl-2H-pyrazolo[3,4-b]pyridin-5-yl)-1-benzothiophen-2-yl)methanone]
20.1 |  | Cn1cc2cc(-c3ccc4sc(C(=O)N5CCOCC5)c(N)c4n3)cnc2n1 [Compound C46, (3-amino-5-(2-methyl-2H-pyrazolo[3,4-b]pyridin-5-yl)thieno[3,2-b]pyridin-2-yl)(4-morpholinyl)methanone]
19.5 |  | CO[C@H]1CCN(C(=O)c2sc3cc(-c4cnc5nn(C)cc5c4)ccc3c2C)C1 [Compound A4S, ((3S)-3-methoxy-1-pyrrolidinyl)(3-methyl-6-(2-methyl-2H-pyrazolo[3,4-b]pyridin-5-yl)-1-benzothiophen-2-yl)methanone]
851 |  | Cc1c(C(=O)N2CCOCC2)sc2cc(-c3ccc4nn(C)cc4c3)ccc12 [Compound A11, (3-methyl-6-(2-methyl-2H-indazol-5-yl)-1-benzothiophen-2-yl)(4-morpholinyl)methanone]
1.34 |  | CC1CN(C(=O)c2cc3ccc(-c4cnc5nn(C)cc5c4)nc3s2)CCO1 (centres unmarked) [Compound B31]
4960 |  | Cc1c(C(=O)N2CCOCC2)sc2cc(-c3ccc(=O)n(C)c3)ccc12 [Compound A9, 1-methyl-5-(3-methyl-2-(4-morpholinylcarbonyl)-1-benzothiophen-6-yl)-2(1H)-pyridinone]
1.26 |  | Cn1cc2cc(-c3cc(-c4ccnn4C)c4cc(C(=O)N5CCOCC5)sc4n3)cnc2n1 [Compound B13, (6-(2-methyl-2H-pyrazolo[3,4-b]pyridin-5-yl)-4-(1-methyl-1H-pyrazol-5-yl)thieno[2,3-b]pyridin-2-yl)(4-morpholinyl)methanone]
1610 |  | Cc1c(C(=O)N2CCOCC2)sc2cc(-c3cnc(NCCO)nc3)ccc12 [Compound A10]
1.81 |  | Cn1cc2cc(-c3ccc4cc(C(=O)N5CCOC6CC65)sc4n3)cnc2n1 (centres unmarked) [Compound B53, (6-(2-methyl-2H-pyrazolo[3,4-b]pyridin-5-yl)thieno[2,3-b]pyridin-2-yl)(2-oxa-5-azabicyclo[4.1.0]heptan-5-yl)methanone]
